Patent US20090177450A1, “SYSTEMS AND METHODS FOR PREDICTING RESPONSE OF BIOLOGICAL SAMPLES” (Lawrence Berkeley National Laboratory, priority 2007, published 2009)
Where two headings read alike, the source gives them in different places.

What was measured:
breast cancer cell lines [1] = test: cells; conditions: Homo sapiens
breast cancer cell lines [2] = system: breast cancer cell lines
[3] = system: ERBB2-positive patients with advanced or metastatic breast cancer
Protocol: Quantitative mRNA levels of the transcripts were measured relative to GAPDH using the branch capture (BC) assay from Panomics using RNA extracted from single 10 micrometer FFPE sections from each tumor. Adjacent H&E stained sections were analyzed for tumor content and samples with <50% tumor were excluded. Transcript levels measured using the Panomics BC assay were normalized to Affymetrix microarray equivalent levels using a mapping function developed using measurements of the transcript levels measured in 22 breast cancer cell lines using both platforms. These functions were then applied to Panomics BC transcript levels for tumor samples to obtain Affymetrix-equivalent transcript levels for each of the EERBB2, GRB7, CRK, ACOT9, CBX5, and DDX5 genes. The weights in the 6-gene predictive model for the tumors were the same as determined from cell lines.
EGF20009 was a randomized, first line phase II trial in ERBB2-positive patients with advanced or metastatic breast cancer in which patients received Lapatinib as monotherapy. 138 patients with ERBB2-amplified tumors were randomly assigned to one of two Lapatinib dose cohorts: 69 patients received Lapatinib 1,500 mg once daily, and the remaining 69 patients received Lapatinib 500 mg twice daily. Samples from patients treated at both levels of Lapatinib were included in the study and patients were stratified into three groups based on tumor ERBB2 mRNA expression levels measured using the Panomics BC assay. Patients with the highest ERBB2 expression levels were assigned to a group designated as sensitive, patients with the lowest ERBB2 expression levels were assigned to a group designated as resistant and the remaining patients were assigned to an intermediate group (n=53). Patients whose tumors assigned to the intermediate group were further stratified into resistant and sensitive classes by using the 6-gene predictor set and a single response predictor CBX5, respectively.

[4] = system: ERBB2-positive tumors from human cancer patients; test: Progression free survival in a tumor panel stratified by the 6-gene computational model (Example 7); assay type: in vivo; conditions: sensitive if predicted log(GI50)≦0.4
Excerpt: The computational model described in Example 6 was applied to the mRNA expression levels obtained to predict the Lapatinib sensitivity status of the tumors. […] The progression free survival of those predicted responders (sensitive) were compared to the non-responders (resistant).

## CS(=O)(=O)CCNCc1ccc(-c2ccc3ncnc(Nc4ccc(OCc5cccc(F)c5)c(Cl)c4)c3c2)o1 [Lapatinib]
Breast cancer cell lines [1]; AU565, read-out: log10(GI50), cell line AU565 (converted), Training sample
  GI50: 0.0234 µM
Breast cancer cell lines [1]; BT-474, read-out: log10(GI50), cell line BT474 (converted), Training sample
  GI50: 0.03 µM
Breast cancer cell lines [1]; BT-483, read-out: log10(GI50), cell line BT483 (converted), Training sample
  GI50: 1.89 µM
Breast cancer cell lines [1]; BT-549, read-out: log10(GI50), cell line BT549 (converted), Training sample
  GI50: 25.1 µM
Breast cancer cell lines [1]; CAMA-1, read-out: log10(GI50), cell line CAMA1 (converted), Test sample
  GI50: 32.1 µM
Breast cancer cell lines [1]; HBL-100, read-out: log10(GI50), cell line HBL100 (converted), Training sample
  GI50: 6.33 µM
Breast cancer cell lines [1]; HCC38, read-out: log10(GI50), cell line HCC38 (converted), Training sample
  GI50: 5 µM
Breast cancer cell lines [1]; HCC70, read-out: log10(GI50), cell line HCC70 (converted), Test sample
  GI50: 0.5 µM
Breast cancer cell lines [1]; HCC202, read-out: log10(GI50), cell line HCC202 (converted), Test sample
  GI50: 0.015 µM
Breast cancer cell lines [1]; HCC1143, read-out: log10(GI50), cell line HCC1143 (converted), Training sample
  GI50: 3.04 µM
Breast cancer cell lines [1]; HCC1187, read-out: log10(GI50), cell line HCC1187 (converted), Test sample
  GI50: 7.35 µM
Breast cancer cell lines [1]; HCC1428, read-out: log10(GI50), cell line HCC1428 (converted), Test sample
  GI50: 10 µM
Breast cancer cell lines [1]; HCC1500, read-out: log10(GI50), cell line HCC1500 (converted), Training sample
  GI50: 1.6 µM
Breast cancer cell lines [1]; HCC1569, read-out: log10(GI50), cell line HCC1569 (converted), Training sample
  GI50: 0.1 µM
Breast cancer cell lines [1]; HCC1937, read-out: log10(GI50), cell line HCC1937 (converted), Training sample
  GI50: 3 µM
Breast cancer cell lines [1]; HCC1954, read-out: log10(GI50), cell line HCC1954 (converted), Training sample
  GI50: 0.3 µM
Breast cancer cell lines [1]; Hs-578T, read-out: log10(GI50), cell line HS578T (converted), Training sample
  GI50: 10 µM
Breast cancer cell lines [1]; MCF7, read-out: log10(GI50), cell line MCF7 (converted), Training sample
  GI50: 6 µM
Breast cancer cell lines [1]; MCF-10A, read-out: log10(GI50), cell line MCF10A (converted), Training sample
  GI50: 3 µM
Breast cancer cell lines [1]; MCF-12A, read-out: log10(GI50), cell line MCF12A (converted), Test sample
  GI50: 4 µM
Breast cancer cell lines [1]; MDA-MB-157, read-out: log10(GI50), cell line MDAMB157 (converted), Training sample
  GI50: 10 µM
Breast cancer cell lines [1]; MDA-MB-231, read-out: log10(GI50), cell line MDAMB231 (converted), Training sample
  GI50: 10 µM
Breast cancer cell lines [1]; MDA-MB-361, read-out: log10(GI50), cell line MDAMB361 (converted), Training sample
  GI50: 1.2 µM
Breast cancer cell lines [1]; MDA-MB-435, read-out: log10(GI50), cell line MDAMB435 (converted), Training sample
  GI50: 10 µM
Breast cancer cell lines [1]; MDA-MB-436, read-out: log10(GI50), cell line MDAMB436 (converted), Training sample
  GI50: 30 µM
Breast cancer cell lines [1]; MDA-MB-453, read-out: log10(GI50), cell line MDAMB453 (converted), Training sample
  GI50: 3 µM
Breast cancer cell lines [1]; MDA-MB-468, read-out: log10(GI50), cell line MDAMB468 (converted), Training sample
  GI50: 10 µM
Breast cancer cell lines [1]; SK-BR-3, read-out: log10(GI50), cell line SKBR3 (converted), Test sample
  GI50: 0.03 µM
Breast cancer cell lines [1]; SUM52PE, read-out: log10(GI50), cell line SUM52PE (converted), Training sample
  GI50: 15 µM
Breast cancer cell lines [1]; SUM149PT, read-out: log10(GI50), cell line SUM149PT (converted), Training sample
  GI50: 0.3 µM
Breast cancer cell lines [1]; SUM185PE, read-out: log10(GI50), cell line SUM185PE (converted), Training sample
  GI50: 12 µM
Breast cancer cell lines [1]; SUM-159-PT, read-out: log10(GI50), cell line SUM159PT (converted), Training sample
  GI50: 3 µM
Breast cancer cell lines [1]; T47D, read-out: log10(GI50), cell line T47D (converted), Test sample
  GI50: 25 µM
Breast cancer cell lines [1]; UACC-812, read-out: log10(GI50), cell line UACC812 (converted), Training sample
  GI50: 0.015 µM
Breast cancer cell lines [1]; ZR-75-1, read-out: log10(GI50), cell line ZR75.1 (converted), Test sample
  GI50: 20 µM
Breast cancer cell lines [1]; ZR-75B, read-out: log10(GI50), cell line ZR75B (converted), Test sample
  GI50: 8 µM
Breast cancer cell lines [1]; read-out: average log(GI50), training set of 30 breast cancer cell-lines (converted)
  GI50: 2.51 µM
Breast cancer cell lines [1]; read-out: log10(GI50), cell line 600MPE (converted), Training sample
  GI50: 8 µM
Breast cancer cell lines [1]; read-out: log10(GI50), cell line HCC2185 (converted), Training sample
  GI50: 8 µM
Breast cancer cell lines [1]; read-out: log10(GI50), cell line HCC3153 (converted), Training sample
  GI50: 10 µM
Breast cancer cell lines [1]; read-out: log10(GI50), cell line LY2 (converted), Training sample
  GI50: 8 µM
Breast cancer cell lines [2]; across 40 breast cancer cell lines
  dynamic range of the GI50 response data: > 3 logs
Breast cancer cell lines [2]; cell line AU565 found sensitive to Lapatinib
  Sensitivity: Yes
Breast cancer cell lines [2]; cell line BT474 found sensitive to Lapatinib
  Sensitivity: Yes
Breast cancer cell lines [2]; cell line HCC202 found sensitive to Lapatinib
  Sensitivity: Yes
Breast cancer cell lines [2]; cell line HCC1569 found sensitive to Lapatinib
  Sensitivity: Yes
Breast cancer cell lines [2]; cell line HCC1954 found sensitive to Lapatinib
  Sensitivity: Yes
Breast cancer cell lines [2]; cell line SKBR3 found sensitive to Lapatinib
  Sensitivity: Yes
Breast cancer cell lines [2]; cell line SUM149PT found sensitive to Lapatinib
  Sensitivity: Yes
Breast cancer cell lines [2]; cell line UACC812 found sensitive to Lapatinib
  Sensitivity: Yes
[3]; intermediate ERBB2 expression group (n=53), 6-gene predictor set
  hazards ratio (HR), predicted sensitive vs predicted resistant patients: 0.383
[3]; intermediate group, CBX5 single predictor
  hazards ratio (HR), predicted sensitive vs predicted resistant patients: 0.25
[3]; intermediate group, patients predicted to be resistant, CBX5 single predictor
  median survival: 61 days
[3]; intermediate group, patients predicted to be sensitive, CBX5 single predictor
  median survival: 176 days
[3]; patients predicted to be resistant, CBX5 single predictor
  response rate: 17%
[3]; patients predicted to be sensitive, CBX5 single predictor
  response rate: 56%
[4]
  median survival of predicted responders compared to non-responders: longer
